From US20260347309A1 (priority 2022, published 2026)

Columns and labels:
MHC class I = MHC class I surface expression on RAW264.7
[1] = test system: B16-OVA cells / B3Z cells; assay: B3Z activation assay, recognition of OVA model tumor antigen on B16-OVA cells; type: cell-based; details: B16-OVA cells treated (100 μM, 24 hours) then B3Z co-culture 24 h; read-out: increase in recognition of model tumor antigen by B3Z cells
Protocol: B16-OVA cells are seeded into a 96-well plate and treated with 100 μM […], […] or racemic rimantadine for 24 hours, prior to addition of B3Z cells. After 24 hours of co-culture, medium is removed and 100 μl of lysis buffer [0.155 mM chlorophenol red β-D-galactopyranoside (CPRG) (Roche), 0.125% Nonidet P-40 Alternative (EMDCalbiochem), and 9 mM MgCl2 (Sigma) in PBS] are added. After incubation for 4 hours at 37 °C, the absorbance at 570 nm is determined on a TECAN infinite M200 microplate reader.

B16-OVA tumor = assay: mouse tumor model B16-OVA, IP treatment; details: in combination with anti-PDL1 immunotherapy; B16-OVA tumors
MHC I = details: E5-positive AT-84-E7
B16-OVA = assay: BrdU incorporation / cell proliferation assay in B16-OVA; type: cell-based; details: for G0/G1 cell cycle arrest / S phase: BrdU, alone
Protocol: (§1) [LEFT OUT]. Louis, MO) (27).
(§2) Cell cycle progression was analyzed on the basis of BrdU incorporation following […] cell staining with BrdU-APC and 7-AAD using BD Pharmingen BrdU Flow Kit. (BD, Franklin Lakes, NJ) according to the manufacture's protocol. Cells are analyzed using flow cytometry. Cell proliferation is assessed by using MTT [3-(4,5-dimethylthiazol-2-yl)-2,5-diphenyltetrazolium bromide]. First, cells are seeded in 96-well plate and cultured for 2-3 days. Next, culture media is replaced with fresh media containing 0.5 mg/ml of MTT (Sigma) and the plates are incubated for 4 hours at 37 °C. Then, purple formazan crystals are dissolved in lysis buffer (4 mM HCl and 0.1% NP-40 in isopropanol) and the absorbance is recorded on a TECAN infiniteM200 microplate reader (Tecan, Männedorf, Switzerland) at a wavelength of 570 nm with absorbance at 650 nm as reference.

[2] = test system: glutamate, GABA, dopamine receptors; assay: in vivo SPECT receptor binding selectivity (Examples 4 and 5); set-up: species or system mouse
MHC = assay: surface expression of MHC (flow cytometry), multiple cell lines
Tau = assay: RTqPCR gene expression of Tau; type: cell-based
Protocol: (§3) Total RNA is extracted using TRIzol Reagent (Invitrogen) and reverse transcribed with qScript cDNA Synthesis Kit (Quanta BioSciences, Beverly, MA) according to the manufacturer's instructions. Quantitative PCR analysis is conducted by using KAPA SYBR […] FAST (KAPA Biosystems, Wilmington, MA) on the 7900HT Fast Real-Time PCR System (Applied Biosystems, Foster City, CA).

AT-84-E7 = assay: BrdU incorporation / cell proliferation assay in AT-84-E7; type: cell-based; details: for G0/G1 cell cycle arrest / S phase: BrdU, alone
Protocol: as §1, §2

tumor = assay: mouse cancer models, general anti-tumor activity; type: in vivo; details: alone
CAL-27 cells = assay: CAL-27 in vitro MTT proliferation assay; type: cell-based, human; details: 0, 100, 250 or 500 μM, 24 or 48 hours
Protocol: On day 1, CAL-27 cells were seeded in a 96-well plate (2-4×10^3 cells/well, medium 100 μl/well) and left overnight to allow the cells to attach to the plate. On day 2, varying concentrations of rimantadine (0 μM, 100 μM, 250 μM, or 500 μM) were added to the cells and allowed to incubate for 24 hours or 48 hours. On either day 3 or 4, the culture media was aspirated, and 100 μl/well of MTT solution (comprising an MTT concentration of 0.5 mg/ml; formed by dilution of thiazolyl blue tetrazolium bromide solution (SIGMA, Cat #M2128) with stock solution (5 mg/ml in PBS (−20 °C)) was added to the culture media. The cells were incubated in a CO2 incubator at 37 °C for 3 hours, and the MTT solution was aspirated. 100 μl/well of DMSO was then added and the cells were incubated for about 5 minutes. A OD570 nm (Ref 650 nm) was then read. Results of the experiment are shown in FIG. 2.

[3] = molecular target: T1, NR1/NR2B ionotropic receptor (Homo sapiens, UniProt Q05586+Q13224); assay: ScreenPatch IonWorks Barracuda electrophysiology assay on NR1/NR2B; type: cell-based; details: for relative inhibition of NR2B: comparison of enantiomers and racemate, words
T1 construct: expressed in transfected cells
Protocol: (§4) Test articles were evaluated for functional effects on ion channels.
(§5) The final DMSO concentration was 0.6%.
(§6) Adjusted to pH 7.2 with CsOH.

Stathmin = assay: RTqPCR gene expression of Stathmin; type: cell-based
Protocol: as §3

[4] = test system: murine and human cell lines engineered to express HPV16 E5; assay: cell cycle arrest in cell lines engineered to express HPV16 E5; type: cell-based; details: cells expressing HPV16 E5
Protocol: as §2

[5] = in vivo CNS adverse effects / toxicity (Examples 4 and 5); set-up: species or system mouse
MHC class II = MHC class II surface expression on RAW264.7
[6] = molecular target: T2, NR1/NR2A ionotropic receptor (Homo sapiens, UniProt Q05586+Q12879); assay: ScreenPatch IonWorks Barracuda electrophysiology assay on NR1/NR2A; type: cell-based
T2 construct: expressed in transfected cells
Protocol: as §4, §5, §6

[7] = cited from earlier work
D2/3 dopamine receptor = details: radioligand; cited from earlier work
CAL-27 = assay: BrdU incorporation and proliferation assays in CAL-27; type: cell-based, human; details: alone
Protocol: as §1, §2

SCC-47 = assay: BrdU incorporation and proliferation assays in SCC-47; type: cell-based, human; details: alone
Protocol: as §1, §2

CAL-33 = assay: BrdU incorporation and proliferation assays in CAL-33; type: cell-based, human; details: alone
Protocol: as §1, §2

M2 transmembrane channel = details: cited from earlier work
[8] = agonist format, first application, data not shown

T1 sequence (Q13224 27-1484, other chains not shown): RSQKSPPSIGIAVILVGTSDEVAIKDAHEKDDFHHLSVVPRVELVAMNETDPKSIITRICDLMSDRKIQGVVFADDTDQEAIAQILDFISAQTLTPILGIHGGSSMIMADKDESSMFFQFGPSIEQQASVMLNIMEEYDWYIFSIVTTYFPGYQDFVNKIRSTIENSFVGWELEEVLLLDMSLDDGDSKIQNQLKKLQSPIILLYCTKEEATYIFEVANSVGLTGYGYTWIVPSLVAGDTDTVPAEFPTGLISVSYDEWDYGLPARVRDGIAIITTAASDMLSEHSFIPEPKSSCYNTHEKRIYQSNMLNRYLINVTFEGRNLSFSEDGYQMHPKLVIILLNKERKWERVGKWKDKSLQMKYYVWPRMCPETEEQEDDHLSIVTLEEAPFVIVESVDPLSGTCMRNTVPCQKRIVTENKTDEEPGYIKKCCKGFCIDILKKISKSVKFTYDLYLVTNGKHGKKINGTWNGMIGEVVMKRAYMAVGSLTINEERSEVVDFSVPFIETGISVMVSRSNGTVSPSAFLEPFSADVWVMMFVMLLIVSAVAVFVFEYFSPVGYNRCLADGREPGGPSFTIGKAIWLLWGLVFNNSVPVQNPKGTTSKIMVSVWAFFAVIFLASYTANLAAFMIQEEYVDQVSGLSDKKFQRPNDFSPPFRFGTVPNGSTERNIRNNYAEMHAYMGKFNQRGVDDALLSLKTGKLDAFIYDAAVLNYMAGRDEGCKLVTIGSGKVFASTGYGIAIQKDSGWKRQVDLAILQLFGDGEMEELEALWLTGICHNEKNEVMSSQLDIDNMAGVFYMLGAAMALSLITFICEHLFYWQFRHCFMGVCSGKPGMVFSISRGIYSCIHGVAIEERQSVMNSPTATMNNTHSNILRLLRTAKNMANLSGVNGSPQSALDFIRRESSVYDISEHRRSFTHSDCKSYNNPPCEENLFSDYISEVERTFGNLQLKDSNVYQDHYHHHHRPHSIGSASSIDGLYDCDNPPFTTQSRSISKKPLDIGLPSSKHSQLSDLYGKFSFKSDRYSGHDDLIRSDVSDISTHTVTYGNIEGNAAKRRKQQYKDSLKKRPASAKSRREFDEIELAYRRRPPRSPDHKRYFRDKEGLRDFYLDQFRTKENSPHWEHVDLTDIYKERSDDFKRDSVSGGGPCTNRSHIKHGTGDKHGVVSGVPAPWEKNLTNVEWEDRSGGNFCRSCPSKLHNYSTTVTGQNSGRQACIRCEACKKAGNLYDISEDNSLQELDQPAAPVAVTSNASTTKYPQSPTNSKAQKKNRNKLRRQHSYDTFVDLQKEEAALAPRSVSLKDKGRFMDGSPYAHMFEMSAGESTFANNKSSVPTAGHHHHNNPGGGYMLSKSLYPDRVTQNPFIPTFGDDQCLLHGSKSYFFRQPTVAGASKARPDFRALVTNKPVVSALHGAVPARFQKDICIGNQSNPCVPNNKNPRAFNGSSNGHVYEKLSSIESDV
T2 sequence (Q12879 23-1464, other chains not shown): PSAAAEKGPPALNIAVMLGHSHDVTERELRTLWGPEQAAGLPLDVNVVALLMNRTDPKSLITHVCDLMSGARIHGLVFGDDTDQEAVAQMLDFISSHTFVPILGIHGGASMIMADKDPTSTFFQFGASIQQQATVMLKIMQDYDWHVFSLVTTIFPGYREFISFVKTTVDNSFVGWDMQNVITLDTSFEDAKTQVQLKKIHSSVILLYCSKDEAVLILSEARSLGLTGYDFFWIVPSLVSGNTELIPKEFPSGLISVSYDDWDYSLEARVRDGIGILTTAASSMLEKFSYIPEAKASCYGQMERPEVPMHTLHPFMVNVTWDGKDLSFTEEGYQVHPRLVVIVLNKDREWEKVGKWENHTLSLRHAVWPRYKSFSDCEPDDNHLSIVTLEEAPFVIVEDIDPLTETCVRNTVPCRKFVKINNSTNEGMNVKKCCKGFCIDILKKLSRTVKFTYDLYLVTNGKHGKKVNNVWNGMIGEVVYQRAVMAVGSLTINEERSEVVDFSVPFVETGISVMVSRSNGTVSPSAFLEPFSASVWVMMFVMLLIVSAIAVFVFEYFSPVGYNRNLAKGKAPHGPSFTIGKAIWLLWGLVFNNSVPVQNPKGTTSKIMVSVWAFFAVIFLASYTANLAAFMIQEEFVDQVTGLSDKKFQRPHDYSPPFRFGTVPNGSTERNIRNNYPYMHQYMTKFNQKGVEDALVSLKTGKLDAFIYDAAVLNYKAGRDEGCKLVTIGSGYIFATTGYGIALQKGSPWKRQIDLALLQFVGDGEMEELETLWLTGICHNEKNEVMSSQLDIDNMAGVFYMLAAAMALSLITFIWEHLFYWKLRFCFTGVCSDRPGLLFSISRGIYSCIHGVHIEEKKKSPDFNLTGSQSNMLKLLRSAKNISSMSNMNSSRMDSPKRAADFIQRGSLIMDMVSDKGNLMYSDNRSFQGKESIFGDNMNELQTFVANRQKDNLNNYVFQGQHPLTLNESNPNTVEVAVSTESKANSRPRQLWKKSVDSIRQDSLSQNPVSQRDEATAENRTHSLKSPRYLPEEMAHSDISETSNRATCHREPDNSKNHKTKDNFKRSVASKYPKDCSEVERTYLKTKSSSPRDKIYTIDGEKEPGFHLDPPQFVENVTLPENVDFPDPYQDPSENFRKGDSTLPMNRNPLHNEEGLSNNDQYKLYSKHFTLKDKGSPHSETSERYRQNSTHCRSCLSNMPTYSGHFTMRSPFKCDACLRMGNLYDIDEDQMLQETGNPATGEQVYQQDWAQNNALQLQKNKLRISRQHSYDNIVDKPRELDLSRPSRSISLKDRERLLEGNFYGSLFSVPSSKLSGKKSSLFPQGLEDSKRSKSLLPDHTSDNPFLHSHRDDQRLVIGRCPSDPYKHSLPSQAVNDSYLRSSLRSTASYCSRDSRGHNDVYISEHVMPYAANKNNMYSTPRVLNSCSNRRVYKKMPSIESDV

Compound	MHC class I surface expression (MHC class I)	fold induction at 100 µM [1]	survival (B16-OVA tumor)	cell surface expression of MHC I (MHC I)	cell proliferation (B16-OVA)	G0/G1 cell cycle arrest (B16-OVA)	S phase (B16-OVA)	surface expression of MHC (MHC)	Tau gene expression (Tau)	cell proliferation (AT-84-E7)	G0/G1 cell cycle arrest (AT-84-E7)	S phase (AT-84-E7)	anti-tumor activity (tumor)	relative inhibition of NR2B [3]	Stathmin gene expression (Stathmin)	cell cycle arrest [4]	MHC class II surface expression (MHC class II)	other results
C[C@H](N)C12CC3CC(CC(C3)C1)C2 [2-S rimantadine]	significant increases	3	significant improvement in survival	restored	Suppression of cell proliferation	significant increases in G0/G1 cell cycle arrest	significant decreases in S phase	Significant increases in surface expression of MHC	Decreases in microtubule associated molecule Tau	Suppression of cell proliferation	significant increases in G0/G1 cell cycle arrest	significant decreases in S phase	significantly decreased tumor growth	to a lesser degree as compared to 2-R rimantadine and racemic rimantadine	significant decreases	induce cell cycle arrest	significant increases	binding selectivity or agonistic behavior to glutamate, GABA, dopamine receptors ([2]; Example 5, 10-20 mg/kg IP daily 7 days): significantly higher binding selectivity or agonistic behavior; cancer cell proliferation compared to R-rimantadine or racemic rimantadine (CAL-27 cells): enhanced or equivalent cancer cell proliferation as compared to R-rimantadine or racemic rimantadine; toxicity compared to 2-R rimantadine ([5]; Example 4, taken together with Example 2): significantly less toxic; incidence of central nervous system adverse effects ([5]; Example 5): higher incidence of central nervous system adverse effects; toxicity compared to 2-R rimantadine ([5]; Example 5, taken together with Example 2): significantly less toxic
NC12CC3CC(CC(C3)C1)C2 [Amantadine]	–	–	–	–	–	–	–	–	–	–	–	–	–	–	–	–	–	agonist effect: activation of NMDA receptors [6, 8]: Neither test articles nor amantadine had produced significant activation of NMDA receptors; shift in potency for steady state vs peak currents ([6]; suggests open channel block mechanism of inhibition): Leftward shift in amantadine potency for steady state currents measurements; agonist effect: activation of NMDA receptors [3, 8]: Neither test articles nor amantadine had produced significant activation of NMDA receptors
CC(N)C12CC3CC(CC(C3)C1)C2 (racemic) [racemic rimantadine]	–	–	–	–	–	–	–	–	–	–	–	–	–	–	–	–	–	side effects ([7]; currently prescribed doses): central nervous system (CNS) side effects, sleep side effects, gastrointestinal side effects, and atropinic side effects; most commonly cited toxicities for discontinuation of treatment ([7]; in vivo): Anxiety and insomnia
CCN1CCC[C@H]1CNC(=O)c1c(OC)ccc(I)c1O [IBZM]	–	–	–	–	–	–	–	–	–	–	–	–	–	–	–	–	–	affinity for the D2/3 dopamine receptor (D2/3 dopamine receptor): high affinity
CC(N)C12CC3CC(CC(C3)C1)C2 (stereo not shown) [rimantadine]	–	–	–	–	–	–	–	–	–	–	–	–	–	–	–	–	–	cell cycle arrest (CAL-27): Significant cell cycle arrest; proliferation (CAL-27): decreased proliferation; cell cycle arrest (SCC-47): Significant cell cycle arrest; proliferation (SCC-47): decreased proliferation; cell cycle arrest (CAL-33): Significant cell cycle arrest; proliferation (CAL-33): decreased proliferation; inhibition of influenza activity (M2 transmembrane channel; by binding M2 transmembrane channel and blocking proton transport): inhibits influenza activity
C[C@@H](N)C12CC3CC(CC(C3)C1)C2 [2-R rimantadine]	significant increases	3	significant improvement in survival	restored	Suppression of cell proliferation	significant increases in G0/G1 cell cycle arrest	significant decreases in S phase	Significant increases in surface expression of MHC	Decreases in microtubule associated molecule Tau	Suppression of cell proliferation	significant increases in G0/G1 cell cycle arrest	significant decreases in S phase	significantly decreased tumor growth	greater ability to inhibit NR2B as compared to racemic rimantadine	significant decreases	induce cell cycle arrest	significant increases	binding selectivity or agonistic behavior to glutamate, GABA, dopamine receptors ([2]; Example 4, 10-20 mg/kg IP daily 7 days): significantly higher binding selectivity or agonistic behavior; incidence of central nervous system adverse effects ([5]; Example 4): higher incidence of central nervous system adverse effects; binding affinity for M2 channel pore (M2 transmembrane channel; one study, R- vs S-enantiomer): greater affinity than the S-enantiomer
